Molecular target: T1, IC-GPCR2 (Homo sapiens, UniProt Q8TDV5, S309L)
T1 construct: expressed in transfected cells
T1 sequence (Q8TDV5 1-335 S309L): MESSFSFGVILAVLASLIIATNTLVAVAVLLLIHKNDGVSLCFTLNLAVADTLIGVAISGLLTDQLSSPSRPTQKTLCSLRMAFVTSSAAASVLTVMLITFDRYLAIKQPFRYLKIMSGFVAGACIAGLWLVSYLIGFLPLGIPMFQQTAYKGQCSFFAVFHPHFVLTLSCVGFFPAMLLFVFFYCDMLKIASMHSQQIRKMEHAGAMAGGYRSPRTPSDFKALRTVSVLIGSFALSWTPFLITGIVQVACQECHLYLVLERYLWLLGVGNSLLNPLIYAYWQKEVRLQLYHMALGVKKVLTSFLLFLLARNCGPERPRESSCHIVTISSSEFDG
Experiment: Stimulation of cAMP in CHO cells stably expressing IC-GPCR2 (HTRF cAMP assay)
Type: cell-based
Settings: 30 minutes, IC-GPCR2 stably expressing CHO cells; for activation at 10 µM: 0.5 h, read-out: Activity at 10 uM (% change in FRET signal from DMSO control)
Experimental: This assay was developed using a stable cell line expressing IC-GPCR-2, generated as follows. IC-GPCR2 (SEQ ID NO:1) was cloned into Gateway pDEST 40vector (Invitrogen), using the Gateway cloning system (invitrogen) according to the manufacturer's instructions. A stable cell line was generated by transfecting a 10 cm plate of CHO cells (source) with 8 ug of this construct using Transit-CHO transfection kit (Mirus). CHO cells were plated the day prior to transfection at a density of 3,000,000 cells/plate. Clones were selected using the antibiotic G418 at 500 ug/ml. 23 clones were picked and assayed for the expression of the receptor by measuring changes in intracellular cAMP levels in response to an IC-GPCR2 agonist.
To measure cAMP activity in response to IC-GPCR2 agonist, the clones were plated in 96 well plates at 17500 cells per well. On the day after plating, cells were incubated with the IC-CPCR2 agonist at […] for 30 minutes in Ham's F12 Media (Gibco) with 0.04% DMSO. cAMP was measured using the cAMP dynamic kit from Cis Bio (Bedford, Mass.) according to the manufacturer's instructions. Briefly, cells were lysed, and cAMP levels determined by competitive immunoassay using D2 labeled cAMP, and europium cryptate tagged anti cAMP antibody. When in close proximity, the D2 and europium cryptate undergo fluorescence resonance energy transfer (FRET), which is measured as a fluorescence ratio (665 nm/620 nm). Unlabelled cAMP in the cell lysate competed with the D2 labeled cAMP for the europium crypate labeled antibody. The resulting decrease in FRET signal corresponded to intracellular cAMP levels. Fluorescence was read on a BMG Labtech PHERAstar, software version 1.50.
Compounds were dissolved in 100% DMSO to a concentration of […] to provide stock solutions. To determine activity against IC-GPCR2, compounds were incubated with IC-GPCR2 stably expressing cells (described above), at 6-8 concentrations ranging from 0.00003 to 10 micromolar, in 96 well plates, in 50 ul of Hams F12 media for 30 minutes. Cells were plated at 17500 cells per well 1 day before running the assay. All compounds were also screened against the parental CHO cells. cAMP was measured using the cAMP dynamic kit from Cis Bio (Bedford, Mass.), according to the manufacturer's instructions. Briefly, cells were lysed and cAMP levels determined by competitive immunoassay using D2 labeled cAMP, and europium cryptate tagged anti cAMP antibody. When in close proximity, the D2 and europium cryptate undergo fluorescence resonance energy transfer (FRET), which is measured as a fluorescence ratio (665 nm/620 nm). Unlabelled cAMP in the cell lysate competed with the D2 labeled cAMP for the europium crypate labeled antibody. The resulting decrease in FRET signal corresponded to intracellular cAMP levels.
Activities of compounds disclosed in Table 1 and Table 2 below are expressed as the % change in FRET signal from DMSO control. “*” no activity observed when tested at 10 micromolar but no higher concentrations were tested. NT indicates the compound was not tested at the indicated concentration.

Structure (SMILES) | activation at 10 µM [%] | Activity at 10 uM (% change in FRET signal from DMSO control) [%]
CC(C)c1noc(N2CCC(c3nc(COc4ccc(-n5cnnn5)cc4)cs3)CC2)n1 [Example 95, 1-(3-Isopropyl-[1,2,4]oxadiazol-5-yl)-4-[4-(4-tetrazol-1-yl-phenoxymethyl)-thiazol-2-yl]-piperidine] | 63 | 
Cc1cnc(N2CCC(c3nc(COc4ccc(-n5cnnn5)cc4)cs3)CC2)nc1Cl [Example 57, 4-Chloro-5-methyl-2-{4-[4-(4-tetrazol-1-yl-phenoxymethyl)-thiazol-2-yl]-piperidin-1-yl}-pyrimidine] | 7 | 
CCc1cnc(N2CCC(c3nc(COc4ccc(S(C)(=O)=O)cc4)no3)CC2)nc1 [Example 84, 5-Ethyl-2-{4-[3-(4-methanesulfonyl-phenoxymethyl)-[1,2,4]oxadiazol-5-yl]-piperidin-1-yl}-pyrimidine] | 59 | 
CCCCN1CCC(c2nc(COc3ccc(-n4cnnn4)cc3)cs2)CC1 [Example 152, 1-Butyl-4-[4-(4-tetrazol-1-yl-phenoxymethyl)-thiazol-2-yl]-piperidine] | 68 | 
CS(=O)(=O)c1ccc(OCc2csc(C3CCN(C(=O)OCc4ccccc4)CC3)n2)cc1 [Example 23, 4-[4-(4-Methanesulfonyl-phenoxymethyl)-thiazol-2-yl]-piperidine-1-carboxylic acid benzyl ester] | 37 | 
O=Cc1ccc(N2CCC(c3nc(COc4ccc(-n5cnnn5)cc4)cs3)CC2)nc1 [Example 72, 4-[4-(4-Tetrazol-1-yl-phenoxymethyl)-thiazol-2-yl]-3,4,5,6-tetrahydro-2H-[1,2′]bipyridinyl-5′-carbaldehyde] | 78 | 
CCc1cnc(N2CCC(c3nc(COc4ccc(N5CCOCC5)cc4)cs3)CC2)nc1 [Example 191, 4-(4-{2-[1-(5-Ethyl-pyrimidin-2-yl)-piperidin-4-yl]-thiazol-4-ylmethoxy}-phenyl)-morpholine] | 74 | 
CCOC(=O)c1ccc(OCc2csc(C3CCN(C(=O)OC(C)(C)C)CC3)n2)cc1 [Example 129, 4-[4-(4-Ethoxycarbonyl-phenoxymethyl)-thiazol-2-yl]-piperidine-1-carboxylic acid tert-butyl ester] | 43 | 
CC(C)(C)OC(=O)N1CCC(c2nc(COc3ccc(N4CCCC4=O)cc3)cs2)CC1 [Example 6, 4-{4-[4-(2-Oxo-pyrrolidin-1-yl)-phenoxymethyl]-thiazol-2-yl}-piperidine-1-carboxylic acid tert-butyl ester] | 68 | 
Cc1ccc(N2CCC(c3nc(COc4ccc(-n5cnnn5)cc4)cs3)CC2)nc1 [Example 69, 5′-Methyl-4-[4-(4-tetrazol-1-yl-phenoxymethyl)-thiazol-2-yl]-3,4,5,6-tetrahydro-2H-[1,2′]bipyridinyl] | 74 | 
Fc1cnc(N2CCC(c3nc(COc4ccc(-n5cnnn5)cc4)cs3)CC2)nc1 [Example 55, 5-Fluoro-2-{4-[4-(4-tetrazol-1-yl-phenoxymethyl)-thiazol-2-yl]-piperidin-1-yl}-pyrimidine] | 66 | 
CCc1cnc(N2CCC(c3nc(COc4c(F)cc(S(C)(=O)=O)cc4F)cs3)CC2)nc1 [Example 189, 2-{4-[4-(2,6-Difluoro-4-methanesulfonyl-phenoxymethyl)-thiazol-2-yl]-piperidin-1-yl}-5-ethyl-pyrimidine] | 76 | 
C[C@H]1CN(C(=O)OC(C)(C)C)CC[C@H]1c1nc(COc2ccc(-n3cnnn3)cc2F)cs1 (stereo in doubt) [Example 145, 4-[4-(2-Fluoro-4-tetrazol-1-yl-phenoxymethyl)-thiazol-2-yl]-3-methyl-piperidine-1-carboxylic acid tert-butyl ester] | 73 | 
CCc1cnc(N2CCC(c3nc(COc4ccc(S(C)(=O)=O)cc4)cs3)CC2)nc1 [Example 51, 5-Ethyl-2-{4-[4-(4-methanesulfonyl-phenoxymethyl)-thiazol-2-yl]-piperidin-1-yl}-pyrimidine] | 57 | 
CCc1cnc(N2CCC(c3nc(COc4ccc(-n5cnnn5)cc4)cs3)CC2)nc1 [Example 52, 5-Ethyl-2-{4-[4-(4-tetrazol-1-yl-phenoxymethyl)-thiazol-2-yl]-piperidin-1-yl}-pyrimidine] |  | 67
Fc1ccnc(N2CCC(c3nc(COc4ccc(-n5cnnn5)cc4)cs3)CC2)n1 [Example 178, 4-Fluoro-2-{4-[4-(4-tetrazol-1-yl-phenoxymethyl)-thiazol-2-yl]-piperidin-1-yl}-pyrimidine] | 39 | 
CCc1cnc(N2CCC(c3nc(COc4c(F)cc(-n5cnnn5)cc4F)cs3)CC2)nc1 [Example 159, 2-{4-[4-(2,6-Difluoro-4-tetrazol-1-yl-phenoxymethyl)-thiazol-2-yl]-piperidin-1-yl}-5-ethyl-pyrimidine] | 78 | 
Cc1ccc(S(=O)(=O)N2CCC(c3nc(COc4ccc(-n5cnnn5)cc4)cs3)CC2)cc1 [Example 156, 4-[4-(4-Tetrazol-1-yl-phenoxymethyl)-thiazol-2-yl]-1-(toluene-4-sulfonyl)-piperidine] | 6 | 
CC(C)(C)OC(=O)N1CCC(c2nc(C(=O)Nc3ccc(-n4cnnn4)cc3)cs2)CC1 [Example 109, 4-[4-(4-Tetrazol-1-yl-phenylcarbamoyl)-thiazol-2-yl]-piperidine-1-carboxylic acid tert-butyl ester] | 38 | 
CCc1cnc(N2CCC(c3nc(COc4ccc5sc(=O)oc5c4)cs3)CC2)nc1 [Example 15, 6-{2-[1-(5-Ethyl-pyrimidin-2-yl)-piperidin-4-yl]-thiazol-4-ylmethoxy}-benzo[1,3]oxathiol-2-one] | 55 | 
Clc1ccc(-c2cnc(N3CCC(c4nc(COc5ccc(-n6cnnn6)cc5)cs4)CC3)nc2)cc1 [Example 59] | 70 | 
CC(=O)Nc1ccc(OCc2csc(C3CCN(C(=O)OC(C)(C)C)CC3)n2)cc1 [Example 3, 4-[4-(4-Acetylamino-phenoxymethyl)-thiazol-2-yl]-piperidine-1-carboxylic acid tert-butyl ester] | 63 | 
CC(=O)c1ccc(OCc2csc(C3CCN(C(=O)OC(C)(C)C)CC3)n2)c(F)c1 [Example 125, 4-[4-(4-Acetyl-2-fluoro-phenoxymethyl)-thiazol-2-yl]-piperidine-1-carboxylic acid tert-butyl ester] | 78 | 
CC(C)(C)OC(=O)Nc1ccc(OCc2csc(C3CCN(C(=O)OC(C)(C)C)CC3)n2)cc1 [Example 130, 4-[4-(4-tert-Butoxycarbonylamino-phenoxymethyl)-thiazol-2-yl]-piperidine-1-carboxylic acid tert-butyl ester] | 53 | 
CCCCc1cnc(N2CCC(c3nc(COc4ccc(-n5cnnn5)cc4)cs3)CC2)nc1 [Example 190, 5-Butyl-2-{4-[4-(4-tetrazol-1-yl-phenoxymethyl)-thiazol-2-yl]-piperidin-1-yl}-pyrimidine] | 77 | 
CCc1cnc(N2CCC(c3nc(COc4ccc(S(C)(=O)=O)cc4F)cs3)CC2)nc1 [Example 76, 5-Ethyl-2-{4-[4-(2-fluoro-4-methanesulfonyl-phenoxymethyl)-thiazol-2-yl]-piperidin-1-yl}-pyrimidine] | 74 | 
FC(F)(F)c1cnc(N2CCC(c3nc(COc4ccc(-n5cnnn5)cc4)cs3)CC2)nc1 [Example 205] | 75 | 

From patent US9925189B2, “Heterocyclic receptor agonists for the treatment of diabetes and metabolic disorders” (CymaBay Therapeutics, Inc., priority 2006, dated 2018)
